Test results as given in PubChem BioAssay (NCI).
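Results reflect a 48-hour exposure of cells in 96-well plates to compound at five concentrations. TGI denotes the concentration required for complete inhibition of growth.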

How the values were obtained:
Experiment in all cases: NCI-60 cell line screen, 48 h
[1] = test system: SR leukemia
[2] = test system: CCRF-CEM leukemia
[3] = test system: BT-549 breast
[4] = test system: SF-268 CNS
[5] = test system: IGROV1 ovarian
[6] = test system: U251 CNS
[7] = test system: NCI-H522 lung
[8] = test system: MDA-MB-435
[9] = test system: UO-31 renal
[10] = test system: M14 melanoma
[11] = test system: RPMI-8226 leukemia
[12] = test system: OVCAR-5 ovarian
[13] = test system: SNB-75 CNS

| SMILES | TGI [1] [µM] | TGI [2] [µM] | TGI [3] [µM] | TGI [4] [µM] | TGI [5] [µM] | TGI [6] [µM] | TGI [7] [µM] | TGI [8] [µM] | TGI [9] [µM] | TGI [10] [µM] | TGI [11] [µM] | TGI [12] [µM] | TGI [13] [µM] |
| --- | --- | --- | --- | --- | --- | --- | --- | --- | --- | --- | --- | --- | --- |
| c1ccc2c(c1)cc1n2CCc2c-1[nH]c1ccccc21 | > 10 | > 10 | > 10 | > 10 | > 10 | > 10 | > 10 | > 10 | > 10 | > 10 | > 10 | > 10 | > 10 |
| COC(=O)Nc1nc2ccc(S(=O)(=O)N3CCOCC3)cc2[nH]1 | > 100 | > 100 | > 100 | > 100 | > 100 | > 100 | > 100 | 89.3 | > 100 | > 100 | > 100 | > 100 | > 100 |
| CCOC(=O)/C=C(\C(=O)OCC)n1cc(C)c(=O)n(Cc2cnnn2COCCOC(C)=O)c1=O | > 34.7 | 5.57 | 16.3 | 38.5 | 21.8 | 43.6 | 2.91 | 28.1 | 27.5 | 57.5 | 18.5 | 43.8 | 39.9 |
| C/C(=C/CC[C@]1(CO)CC[C@]2(C)[C@H](CC[C@@H]3[C@@]4(C)CC[C@H](OC5OC(CO)C(O)C(O)C5OC5OC(CO)C(O)C(O)C5O)C(C)(C)[C@@H]4CC[C@]32C)[C@H]1O)CO (some centres not stated) | > 100 | > 100 | > 100 | > 100 | > 100 | > 100 | > 100 | > 100 | > 100 | > 100 | > 100 | > 100 | > 100 |
| O=C(Cn1c(C(=O)c2ccccc2)nc2ccccc21)c1ccccc1 | > 100 | > 100 | > 100 | > 100 | > 31.6 | > 100 | > 100 | > 100 | > 100 | > 100 | > 100 | > 100 | > 100 |
| C=C(Cl)C(Cl)(CCl)CCC(Br)C(C)(C)Br (configuration not stated) | > 10 | > 10 | > 10 | > 10 | > 10 | > 10 | > 10 | > 10 | > 10 | > 10 | > 10 | > 10 | > 10 |
| N/C1=C/C(=O)NC(=O)c2c(c3ccccc3oc2=O)C1 | > 100 | > 100 | > 100 | > 100 | > 100 | > 100 | > 100 | > 100 | > 100 | > 100 | > 100 | > 100 | > 100 |
| O=C1CN(c2cccc(Cl)c2)C(=O)CN1NCNN1CC(=O)N(c2cccc(Cl)c2)CC1=O | > 100 | > 100 | > 100 | > 100 | > 100 | > 100 | > 100 | > 100 | > 100 | > 100 | > 100 | > 100 | > 100 |
| CC1OC2OC3C(OCC(O)C3O)OC(=O)[C@]34CCC(C)(C)CC3C3=CCC5[C@@]6(C)C[C@H](O)[C@H](OC7OC(CO)C(O)C(O)C7OC7OCC(OC(=O)CC(C)(O)CC(=O)OC1C(O)C2O)C(O)C7O)[C@@](C)(CO)C6CC[C@@]5(C)[C@]3(C)CC4 (some centres not stated) | 20.3 | 24 | 24.8 | 9.2 | 16.9 | 12.6 | 12 | 19.1 | 18.5 | 8.87 | 17.7 | 7 | 18.4 |
| CCN1CCC(CNC(=O)c2ccc(N)cc2)N1CC (configuration not stated) | > 100 | > 100 | > 100 | > 100 | > 100 | > 100 | > 100 | > 100 | > 100 | > 100 | > 100 | > 100 | > 100 |
| Cc1ccc2nc(-c3ccc(C(C)(C)C)cc3)oc(=O)c2c1 | 59.7 | 46.9 | 57.3 | 70.7 | 87.6 | 32.5 | 35 | 43 | 70 | 74 | 48.9 | 89.5 | 47.7 |
| O=C1CSC(c2ccc(Cl)cc2Cl)N1c1ccc(Oc2ccc(Cl)cc2)c(Cl)c1 (configuration not stated) | 42.8 | 61.3 | 68.2 | 51.1 | > 100 | > 100 | 31.5 | 26.3 | 32.6 | > 100 | 68.3 | > 100 | 60 |
| CCCCCCCCCCCCCCCCNc1ccn(C2CC(O)C(COC(c3ccccc3)(c3ccccc3)c3ccc(OC)cc3)O2)c(=O)n1 (configuration not stated) | > 100 | > 100 | > 100 | > 100 | > 100 | > 100 | > 100 | > 100 | 53.8 | > 100 | > 100 | > 100 | > 100 |
| COc1cc2c(/C=C3/C(=O)Nc4ccc(Cl)cc43)c(Cl)[nH]c2cc1C | 0.926 | 0.933 | 1.08 | 43.7 | 5.43 | 4.62 | 7.01 | 0.57 | 15.8 | 13.7 | 5.13 | 17.1 | 5.71 |
| C/C(=N\O)c1cccc[n+]1Cc1ccccc1 | > 100 | > 100 | > 100 | > 100 | > 100 | > 100 | > 100 | > 100 | > 100 | > 100 | > 100 | > 100 | > 100 |
| Cc1cccc(CC(Cc2ccc(C)cc2C(=O)O)C(=O)O)c1 (configuration not stated) | > 100 | > 100 | > 100 | > 100 | > 100 | > 100 | > 100 | > 100 | > 100 | > 100 | > 100 | > 100 | > 100 |
| O=C1C(c2c(O)[nH]c3ccc(Br)cc23)=Nc2ccc(Br)cc21 | > 100 | > 100 | > 100 | > 100 | > 100 | 35 | > 100 | > 100 | > 100 | > 100 | > 100 | > 100 | 41.3 |
| CC1OC(OC2C(O[C@H]3CC[C@@]4(C)C(=CC[C@H]5[C@@H]6C[C@@H]7O[C@]8(CC[C@@H](C)CO8)[C@@H](C)[C@@H]7[C@@]6(C)CC[C@@H]54)C3)OC(CO)C(O)C2O)C(O)C(O)C1O (some centres not stated) | 6.71 | 1.21 | 8.31 | 5.46 | 6.08 | 1.87 | 2.77 | 2.8 | 1.98 | 2.44 | > 25 | 6.16 | 2.62 |
| O=C(O)[C@H](CCC[C@H]1C(=O)O[C@H](c2ccccc2)[C@H](c2ccccc2)N1C(=O)OCc1ccccc1)N[C@@H](c1ccccc1)[C@H](O)c1ccccc1 | 52.3 | 46.4 | 78.9 | > 100 | > 100 | 31.1 | 38.6 | 40.8 | > 100 | > 100 | 54 | > 100 | 55.1 |
| CC1=CP(=O)(c2c(C(C)C)cc(C(C)C)cc2C(C)C)CCC1Cl (configuration not stated) | 23 | 65.4 | 33.4 | 35.4 | 40.9 | 32.3 | 33.6 | 37.6 | 29.2 | 29.8 | 40.9 | 32.5 | 28.6 |
| COC(=O)C1(SC)C2CCC3C2CCC31 (configuration not stated) | > 100 | > 100 | > 100 | > 100 | > 100 | > 100 | > 100 | > 100 | > 100 | > 100 | > 100 | > 100 | > 100 |
| CC(Oc1ccccc1)C(=O)NNC(=O)OC(C)(C)C (configuration not stated) | > 100 | > 100 | > 100 | > 100 | > 100 | > 100 | > 100 | > 100 | > 100 | > 100 | > 100 | > 100 | > 100 |
| C(=Nc1ccc(-c2nc3ccccc3s2)cc1)c1ccc[nH]1 | 49.5 | 57.4 | 46.2 | 52.5 | 40.6 | 27.7 | 28 | 41 | 53.5 | 34.2 | 55.9 | 51.4 | 55.7 |
| OC1COC2CC(Nc3ccccn3)OC12 (configuration not stated) | > 100 | > 100 | > 100 | > 100 | > 100 | > 100 | > 100 | > 100 | > 100 | > 100 | > 100 | > 100 | > 100 |
